Test: solubility
Type: physicochemical
Settings: syrup product of Example 2

With O=P(O)(O)CC(CO)(CO)CO [Phosphonic Acid, 3-hydroxy-2,2-bis(hydroxymethyl)propylphosphonic acid] the solubility was “soluble in water and highly polar organic solvents”.
